Measurements as given in patent publication US8962686B2 (priority 2010, dated 2015).
“Also recorded” adds a separate entry of the source. Like-named read-outs stand apart in the source and are kept apart here.

Legend:
[1] = tested on: steroid-induced intraocular pressure (IOP) rise; conditions: for percentage of mean reduction in IOP rise: topical PB 1, 5 and 15 mM analyzed as one group, with Dex, vs Dex+BSS eye
Description: To explore this hypothesis, trimethylamine N-oxide (TMAO) was tested out using the same steroid-induced glaucoma model in rabbits. […] Fourteen New Zealand albino rabbits (7-week-old male) were divided into 5 groups. The right eyes received topical dexamethasone four times a day followed by topical TMAO (2, 10, 50, 100 and 300 mM) four times a day whereas the left eyes received topical dexamethasone four times a day followed by balanced salt solution, a physiological saline that acted as a control, four times a day.
Dexamethasone, a commonly used steroid was used in all our experiments. […] Herein, nine 7-week-old male New Zealand albino rabbits were randomly divided into 3 groups and each of them received Dexamethasone (Dex) (MaxiDex containing 0.1% Dex, Alcon) 5 times a day in both eyes. In addition, topical sodium phenylbutyrate (PB) (Triple Crown America/TriButyrate, Inc. Perkasie, Pa.) in concentrations of 1, 5 or 15 mM were applied to their right eyes 5 times a day and a balanced salt solution (BSS), a physiological saline that acted as a control, to their left eyes 5 times a day. Intraocular pressure (IOP) was measured twice a week at an interval of 3-4 days by a masked technician. […] Three time points (days 14, 37 and 53) were chosen for data analysis. […] The mean baseline intraocular pressure (IOP) was 11.5 mmHg for both eyes. The percentage of reduction in IOP rise by PB was defined as (“Mean IOP rise in eyes with Dex+BSS” minus “Mean IOP rise in eyes with Dex+PB”) divided by “Mean IOP rise in eyes with Dex+BSS”×100%.
FIG. 2B charts show the longitudinal profiles of IOP measurements of individual rabbits receiving Dex+BSS (left eye, diamonds line) and Dex+PB (right eye, squares line) respectively.
Fourteen 7-week-old male New Zealand albino rabbits received topical dexamethasone (Dex) (MaxiDex containing 0.1% Dex, Alcon) 4 times a day in both eyes.

[2] = tested on: trabecular meshwork (TM) cells; conditions: for percentage of TM cell loss: 14 days
Description: The cell density in the TM aqueous outflow region was examined using the Dex and Dex+PB treated rabbit eyes. […] The specimens were paraffin-processed and serially sectioned at a thickness of 5 μm for hematoxylin-eosin histochemistry. […] The number of cells in TM region was quantified and area was measured by Image J software (NIH, US). (D) The cell densities (mean±standard deviation) were compared among the control and treatment groups and P values were calculated by unpaired Student's t-test.

[3] = tested on: trabecular meshwork extracellular matrix; conditions: 14 days
Description: An experiment was conducted to determine whether sodium phenylbutyrate (PB) could reduce the amount of glycogen and collagen accumulated in the extracellular matrix of the trabecular meshwork. The extracellular protein and collagen substrate deposited on paraffin sections of TM aqueous outflow region were examined in Dex treated and Dex +PB treated rabbit eyes by special periodic acid-Schiff and Masson trichrome histochemical staining The rabbit eyes were paraffin-processed and serially sectioned at a thickness of 5 μm for histochemistry. Sections of (A) untreated control; (B) treated with Dex (0.1%) for 14 days and (C) treated with Dex (0.1%) +PB (0.5mM) for 14 days are shown.

[4] = tested on: trabecular meshwork (TM) tissues
Description: The ultrastructural morphology of rabbit trabecular meshwork (TM) tissues was examined in untreated control eyes, dexamethasone (Dex) (0.1%) treated eyes and Dex+PB (1 mM) treated eyes by transmission electron microscopy. […] The normal rabbit trabecular meshwork is shown in FIGS. 12A and B. It consists of bundles of fine fibers (elastic and collagen fibers) of the trabecular cells (FIG. 12A).

[5] = tested on: elevated intraocular pressure from steroid-induced IOP rise
Description: On day 56 when Phase II of the experiment started, topical sodium phenylbutyrate (1 mM), instead of balanced salt solution, was applied to the left eyes of 5 rabbits (FIG. 3).

steroid-induced IOP rise = tested on: steroid-induced IOP rise
Description: Eight rabbits were studied in this experiment. All their left eyes received Dex+BSS 5 times a day, from day 0 to day 60, the day when the experiment ended (squares line for both Phase I and Phase II). […] The right eyes of 3 randomly-chosen rabbits were treated with Dex+PB (sodium phenylbutyrate, 0.5 mM) eye drops 5 times a day, from day 0 to day 42. […] On day 43, the treatment of the right eyes of the 3 rabbits changed from Dex+PB to topical Dex+BSS. Still, Dex+BSS eye drops were applied 5 times a day, until day 60 when the experiment ended (broken brown line in Phase II).

rabbit eye = tested on: rabbit eye
Description: Adult male rabbits (n=13) received topical sodium phenylbutyrate (1 and 5 mM) 4 times a day in both eyes. […] The rabbit eyes were examined by an ophthalmologist on days 7 and 14 in which the rabbits were anesthetized with intramuscular injection of ketamine (75 mg/kg) and xylazine (7.5 mg/kg).

[6] = tested on: cultured human trabecular meshwork (TM) cells; experiment: MTT cell viability/proliferation assay; conditions: PB 0.5 mM and 1 mM, 5 days
Description: In these tests, cultured human TM cells (7000 cells/ml) were plated in each well in Dulbecco's Modified Eagle medium (DMEM) supplemented with 1000 mg/L glucose, 2% charcoal-stripped fetal bovine serum and antibiotics. They were treated with sodium phenylbutyrate (PB) (0.5, 1 and 5 mM), dexamethasone (Dex) (100 and 500 nM) and a combination of both for 5 days. Using the 3-(4,5-Dimethylthiazol-2-yl)-2,5-diphenyltetrazolium bromide dye (MTT) cell viability/proliferation assay (Invitrogen), the formazan intensity was measured with a multiplate reader at an excitation wavelength of 595 nm and an emission wavelength 610 nm. The mean signal intensity was expressed as a percentage and was compared to the untreated control among treatments.

[7] = tested on: Y437H mutant myocilin transgene mice; conditions: oral administration; compared to untreated transgene mice; cited from earlier work
[8] = topical 1 and 5 mM 4 times a day

## C[C@@H]1C[C@H]2[C@@H]3CCC4=CC(=O)C=C[C@]4(C)[C@@]3(F)[C@@H](O)C[C@]2(C)[C@@]1(O)C(=O)CO [dexamethasone]
[1]; day 14, topical 0.1% Dex 4 times a day in both eyes
  increase in intraocular pressure compared with baseline (day 0): up to 6 mmHg
[2]; Dex 0.1% for 14 days, vs untreated control
  reduction of cell density in TM region: 53%
[3]; topical dexamethasone 0.1% alone
  glycogen deposition in trabecular meshwork (periodic acid-Schiff): greater deposition of glycogen
[3]; topical dexamethasone 0.1% alone, vs untreated control
  collagen deposit in trabecular meshwork (Masson trichrome): substantially increased
[4]; topical 0.1% dexamethasone for 42 days
  ultrastructure of trabecular meshwork (electron microscopy): deposition of electron dense materials

## sodium phenylbutyrate
[5]; day 67, eyes treated with PB 1 mM throughout both phases
  mean IOP level: 15.4 mmHg
[5]; day 67, topical 1 mM from day 56 in left eyes previously on Dex+BSS (20.5 mmHg on day 56)
  IOP after treatment: 16.6 mmHg
[5]; topical 1 mM, treatment period of 11 days (day 56 to day 67)
  reduction in IOP: 19%
steroid-induced IOP rise; Phase II, day 43 to day 60
  mean IOP level after cessation of topical PB: about 16.5 mmHg
steroid-induced IOP rise; day 43 to day 60, Dex+BSS after Dex+PB 0.5 mM
  increase in IOP after cessation of topical PB: less than 2 mmHg
steroid-induced IOP rise; day 60, 18 days after cessation of PB
  IOP at end of experiment: 16.6 mmHg
steroid-induced IOP rise; topical PB 0.5 mM 5 times a day to day 42, then Dex+BSS
  duration of suppression of IOP rise after cessation of eyedrops: ≤ 18 days
Rabbit eye; application to the rabbit eye
  adverse ocular or systemic effects: No adverse ocular or systemic effects
Rabbit eye; [8]
  change in corneal endothelial cell density (specular microscopy): did not cause any significant change
  slit lamp biomicroscopy with fluorescein staining, defects in conjunctiva or cornea: did not reveal any defects
Rabbit eye; topical 1 and 5 mM 4 times a day, both eyes, 7-day post-treatment study period
  systemic signs (diarrhea, paralysis, convulsions/seizures, bleeding, death): none of them exhibited diarrhea, paralysis, convulsions/seizures, bleeding and/or death
Rabbit eye; topical 1 and 5 mM 4 times a day, examined days 7 and 14
  ocular surface diseases (hyperemia, swelling, inflammation, ulcers, bleeding): No ocular surface (conjunctiva and cornea) diseases
[6]
  cytotoxicity to trabecular meshwork cells (MTT): not cytotoxic
[1]; day 14, PB 0.5 mM applied 1 time a day
  mean percentage of reduction in IOP increase: 13.2%
[1]; day 14, PB 0.5 mM applied 2 times a day
  mean percentage of reduction in IOP increase: 54.4%
[1]; day 14, PB 0.5 mM applied 4 times a day
  mean percentage of reduction in IOP increase: 57.9%
[1]; day 14, PB 0.5 mM applied 5 times a day
  mean percentage of reduction in IOP increase: 74.9%
[1]; day 14, other test doses (of 0.01, 0.1, 0.5, 1, 5, 15 mM), 5 times a day, strong responders
  reduction in steroid-induced IOP rise: about 50%
[1]; day 14, 5 times a day
  percentage of mean reduction in IOP rise: 45.0%
[1]; day 37, 5 times a day
  percentage of mean reduction in IOP rise: 84.7%
[1]; day 53, 5 times a day
  percentage of mean reduction in IOP rise: 50.0%
[2]; Dex 0.1% + PB 0.02 mM
  percentage of TM cell loss: 39%
[2]; Dex 0.1% + PB 0.1 mM
  percentage of TM cell loss: 31%
[2]; Dex 0.1% + PB 0.5 mM
  percentage of TM cell loss: 26%
[3]; dexamethasone + sodium phenylbutyrate 1mM
  glycogen deposition in trabecular meshwork (periodic acid-Schiff): greatly reduced
[3]; dexamethasone + sodium phenylbutyrate
  collagen deposit in trabecular meshwork (Masson trichrome): Reduced collagen stain
[4]; dexamethasone with concurrent topical 1 mM sodium phenylbutyrate for 48 days
  ultrastructure of trabecular meshwork (electron microscopy), deposition of electron dense materials: deposition was not apparent
[7]
  effect on glaucoma phenotypes / elevated intraocular pressure: normalization of elevated intraocular pressure

## C[N+](C)(C)[O-] [TMAO, trimethylamine N-oxide]
[1]; topical TMAO 2 to 300 mM 4 times a day with Dex, study period of 18 days
  effect on dexamethasone-induced IOP rise: did not prevent; also recorded: did not prevent or treat
[1]; topical TMAO 2 to 300 mM 4 times a day, 18 days
  IOP difference between Dex+BSS and Dex+TMAO eyes: no significant difference
